Measured values from US10227357B2, “Compounds and methods for kinase modulation, and indications therefor” (Plexxikon Inc., priority 2012, dated 2019).

Legend:
c-kit kinase = target: T1, c-kit kinase (Homo sapiens, UniProt P10721); experiment: c-Kit biochemical assay, AlphaScreen, 10 μM ATP; conditions: c-kit biochemical inhibitory activity; read-out: Biochemical activity (IC50 μM) Kit
T1 construct: The c-kit (or kinase domain thereof) is an active kinase in AlphaScreen; poly-Histidine tag (in-house protein only) (cleaved yes); host or cells: E. coli BL21(DE3)RIL, co-expressed with PTP1B
Procedure, shortened: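 His-tagged c-Kit expressed in E. coli with co-expressed PTP1B (dephosphorylated), tag removed; 0.1 ng per reaction with biotinylated-peptide substrate in 50 mM HEPES pH 7.2, 5 mM MgCl2, 5 mM MnCl2, 5% DMSO, 10 μM ATP, 1 h at room temperature. Phosphorylation detected by AlphaScreen (streptavidin donor, PY20 acceptor beads); IC50 from 8-point 1:3 dilution series.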

c-kit mutant D816V = target: T2, c-kit mutant D816V (Homo sapiens, UniProt P10721, D816V/DEL694-753); experiment: c-Kit mutant D816V biochemical assay, AlphaScreen; conditions: c-kit D816V biochemical inhibitory activity; read-out: Biochemical activity (IC50 μM) Kit D816V
T2 construct: residues 551-934, kinase insertion domain residues 694-753 deleted; 6x-histidine (N); made in house; host or cells: E. coli Arctic Express (DE3) RIL (Stratagene)
Procedure, shortened: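 Eight-point, threefold compound series incubated 30 min at room temperature with E. coli-produced D816V kinase, 10 μM ATP, Mg2+/Mn2+ HEPES buffer pH 7.2 and 5% DMSO. After EDTA stop, streptavidin and anti-phosphotyrosine (PY20) AlphaScreen beads gave the read-out, and IC50 was fitted from the concentration–signal curve.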

T1 sequence (P10721 26-976): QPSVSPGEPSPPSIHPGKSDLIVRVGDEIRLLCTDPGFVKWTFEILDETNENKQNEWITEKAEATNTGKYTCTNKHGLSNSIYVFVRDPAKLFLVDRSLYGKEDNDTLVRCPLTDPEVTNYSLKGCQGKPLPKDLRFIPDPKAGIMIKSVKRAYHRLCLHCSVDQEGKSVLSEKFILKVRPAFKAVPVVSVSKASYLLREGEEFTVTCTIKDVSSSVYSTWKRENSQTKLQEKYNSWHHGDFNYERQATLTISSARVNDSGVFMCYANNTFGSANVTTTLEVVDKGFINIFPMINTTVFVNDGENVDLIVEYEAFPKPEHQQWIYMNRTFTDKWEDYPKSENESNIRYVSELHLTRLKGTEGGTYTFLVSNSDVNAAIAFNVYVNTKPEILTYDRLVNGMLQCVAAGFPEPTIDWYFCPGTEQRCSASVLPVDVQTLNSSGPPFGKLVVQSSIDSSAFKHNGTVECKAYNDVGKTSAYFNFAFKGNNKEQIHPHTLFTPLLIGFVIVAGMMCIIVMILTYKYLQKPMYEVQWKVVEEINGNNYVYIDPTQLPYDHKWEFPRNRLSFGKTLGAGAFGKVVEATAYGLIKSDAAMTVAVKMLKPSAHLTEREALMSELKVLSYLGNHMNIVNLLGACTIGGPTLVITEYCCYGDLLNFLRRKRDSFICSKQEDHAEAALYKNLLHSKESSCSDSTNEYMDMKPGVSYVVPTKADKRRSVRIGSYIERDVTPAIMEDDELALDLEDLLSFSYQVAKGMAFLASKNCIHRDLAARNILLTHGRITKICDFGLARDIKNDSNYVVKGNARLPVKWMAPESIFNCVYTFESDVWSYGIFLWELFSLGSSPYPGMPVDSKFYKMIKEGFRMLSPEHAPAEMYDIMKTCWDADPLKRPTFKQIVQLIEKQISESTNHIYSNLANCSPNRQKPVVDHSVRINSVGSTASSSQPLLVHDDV
T2 sequence (P10721 with tags, fused parts or gaps DEL694-753/D816V): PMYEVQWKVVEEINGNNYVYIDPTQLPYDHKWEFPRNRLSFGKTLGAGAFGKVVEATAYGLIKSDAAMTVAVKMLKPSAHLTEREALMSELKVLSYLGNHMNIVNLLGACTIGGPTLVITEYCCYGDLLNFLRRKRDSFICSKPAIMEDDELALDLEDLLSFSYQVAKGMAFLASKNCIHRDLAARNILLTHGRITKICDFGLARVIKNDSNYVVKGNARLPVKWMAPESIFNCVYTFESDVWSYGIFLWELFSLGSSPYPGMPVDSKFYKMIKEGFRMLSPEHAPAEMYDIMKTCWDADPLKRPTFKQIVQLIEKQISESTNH

With `Cc1cccc(S(=O)(=O)Nc2ccc(-c3ncnc4[nH]c(C)cc34)cc2)c1` [P-0283, 3-methyl-N-[4-(6-methyl-7H-pyrrolo[2,3-d]pyrimidin-4-yl)phenyl]benzenesulfonamide] as the compound, how does the IC50 (c-kit kinase) read?
Its IC50 is 10 to 200 µM.

What about the IC50 (c-kit mutant D816V) of the same compound?
The IC50 was 1 to 10 µM.

How did the IC50 (c-kit kinase) turn out when `COc1ccc(C(=O)N2CCN(c3ncnc4[nH]ccc34)CC2)cc1` [P-0234, (4-methoxyphenyl)-[4-(7H-pyrrolo[2,3-d]pyrimidin-4-yl)piperazin-1-yl]methanone] was run?
The IC50 was 10 to 200 µM.

What about the IC50 (c-kit mutant D816V) of the same compound?
Its IC50 is 10 to 200 µM.

For `CN(C)c1ccc(-c2cc3c(N4CCN(C(=O)Nc5ccc(OC(F)(F)F)cc5)CC4)ncnc3[nH]2)cn1` [P-0114, 4-[6-[6-(dimethylamino)-3-pyridyl]-7H-pyrrolo[2,3-d]pyrimidin-4-yl]-N-[4-(trifluoromethoxy)phenyl]piperazine-1-carboxamide], which IC50 (c-kit kinase) is on record?
The IC50 was 0.0001 to 1 µM.

What about the IC50 (c-kit mutant D816V) of the same compound?
The IC50 was 1 to 10 µM.

With `C[C@H](NC(=O)N1CCN(c2ncnc3cc(C4=CCN(C(=O)C5CC5)CC4)sc23)CC1(C)C)c1cccc(Cl)c1` [P-0552, N-[(1S)-1-(3-chlorophenyl)ethyl]-4-[6-[1-(cyclopropanecarbonyl)-3,6-dihydro-2H-pyridin-4-yl]thieno[3,2-d]pyrimidin-4-yl]-2,2-dimethyl-piperazine-1-carboxamide] as the compound, how does the IC50 (c-kit kinase) read?
Its IC50 is 0.0001 to 1 µM.

And the IC50 (c-kit mutant D816V)?
The IC50 was 0.0001 to 1 µM.

Which IC50 (c-kit kinase) does the source give for `C[C@H](NC(=O)N1CCN(c2ncnc3[nH]c(-c4ccc(C#N)cc4)cc23)CC1(C)C)c1cccc(F)c1` [P-0688, 4-[6-(4-cyanophenyl)-7H-pyrrolo[2,3-d]pyrimidin-4-yl]-N-[(1S)-1-(3-fluorophenyl)ethyl]-2,2-dimethyl-piperazine-1-carboxamide] here?
Its IC50 is 1 to 10 µM.

What about the IC50 (c-kit mutant D816V) of the same compound?
The IC50 was 0.0001 to 1 µM.

With `CCc1ccc(S(=O)(=O)Nc2ccc(-c3ncnc4[nH]c(C)cc34)cc2)cc1` [P-0315, 4-ethyl-N-[4-(6-methyl-7H-pyrrolo[2,3-d]pyrimidin-4-yl)phenyl]benzenesulfonamide] as the compound, how does the IC50 (c-kit kinase) read?
The IC50 was 1 to 10 µM.

And the IC50 (c-kit mutant D816V)?
Its IC50 is 0.0001 to 1 µM.

`Cc1cc2c(-c3ccc(NS(=O)(=O)c4ccc5c(c4)CCO5)cc3)ncnc2[nH]1` [P-0307, N-[4-(6-methyl-7H-pyrrolo[2,3-d]pyrimidin-4-yl)phenyl]-2,3-dihydrobenzofuran-5-sulfonamide] was tested. Which IC50 (c-kit kinase) did it give?
The IC50 was 10 to 200 µM.

What about the IC50 (c-kit mutant D816V) of the same compound?
Its IC50 is 1 to 10 µM.

What does the source list for `Cc1nn(C)cc1-c1cc2ncnc(N3CCN(C(=O)NCc4ccc(F)cc4)[C@H](C)C3)c2s1` [P-0610, (2R)-4-[6-(1,3-dimethylpyrazol-4-yl)thieno[3,2-d]pyrimidin-4-yl]-N-[(4-fluorophenyl)methyl]-2-methyl-piperazine-1-carboxamide]?
IC50 (c-kit kinase): 1 to 10 µM; IC50 (c-kit mutant D816V): 0.0001 to 1 µM

For `NC(=O)N1CCN(c2ncnc3[nH]c(-c4cccnc4)cc23)CC1` [P-0130, 4-[6-(3-pyridyl)-7H-pyrrolo[2,3-d]pyrimidin-4-yl]piperazine-1-carboxamide], which IC50 (c-kit kinase) is on record?
Its IC50 is 10 to 200 µM.

And the IC50 (c-kit mutant D816V)?
Its IC50 is 1 to 10 µM.

Which IC50 (c-kit kinase) does the source give for `COc1cccc([C@@H](C)NC(=O)N2CCN(c3ncnc4cc(-c5ccc(F)cc5)sc34)C[C@H]2C)c1` [P-0605, (2R)-4-[6-(4-fluorophenyl)thieno[3,2-d]pyrimidin-4-yl]-N-[(1R)-1-(3-methoxyphenyl)ethyl]-2-methyl-piperazine-1-carboxamide] here?
The IC50 was 10 to 200 µM.

What about the IC50 (c-kit mutant D816V) of the same compound?
The IC50 was 10 to 200 µM.

Which results are given for `Cc1cc2c(-c3cccc(NS(C)(=O)=O)c3)ncnc2[nH]1` [P-0320, N-[3-(6-methyl-7H-pyrrolo[2,3-d]pyrimidin-4-yl)phenyl]methanesulfonamide]?
IC50 (c-kit kinase): 10 to 200 µM; IC50 (c-kit mutant D816V): 10 to 200 µM

For `O=S(=O)(Nc1ccc(-c2cc3c(-c4ccc(NS(=O)(=O)C5CC5)cc4)ncnc3[nH]2)cc1)C1CC1` [P-0389, N-[4-[4-[4-(cyclopropylsulfonylamino)phenyl]-7H-pyrrolo[2,3-d]pyrimidin-6-yl]phenyl]cyclopropanesulfonamide], which IC50 (c-kit kinase) is on record?
The IC50 was 1 to 10 µM.

What about the IC50 (c-kit mutant D816V) of the same compound?
Its IC50 is 0.0001 to 1 µM.

Which results are given for `Cc1ccc(S(=O)(=O)NC2CCN(c3ncnc4[nH]c(-c5cnn(C)c5)cc34)CC2C)cc1` (stereo not shown) [P-0672, 4-methyl-N-[3-methyl-1-[6-(1-methylpyrazol-4-yl)-7H-pyrrolo[2,3-d]pyrimidin-4-yl]-4-piperidyl]benzenesulfonamide]?
IC50 (c-kit kinase): 0.0001 to 1 µM; IC50 (c-kit mutant D816V): 0.0001 to 1 µM

How did the IC50 (c-kit kinase) turn out when `Cc1cc2c(-c3ccc(NS(=O)(=O)c4ccc(OC(F)F)cc4)cc3F)ncnc2[nH]1` [P-0366, 4-(difluoromethoxy)-N-[3-fluoro-4-(6-methyl-7H-pyrrolo[2,3-d]pyrimidin-4-yl)phenyl]benzenesulfonamide] was run?
The IC50 was 1 to 10 µM.

And the IC50 (c-kit mutant D816V)?
Its IC50 is 1 to 10 µM.

Which IC50 (c-kit kinase) does the source give for `O=S(=O)(Nc1ccc(-c2ncnc3cc4c(cc23)OCCO4)c(F)c1)C1CC1` [P-0265, N-[4-(7,8-dihydro-[1,4]dioxino[2,3-g]quinazolin-4-yl)-3-fluoro-phenyl]cyclopropanesulfonamide] here?
The IC50 was 10 to 200 µM.

What about the IC50 (c-kit mutant D816V) of the same compound?
Its IC50 is 10 to 200 µM.

Which IC50 (c-kit kinase) does the source give for `NS(=O)(=O)c1ccc(-c2cc3c(N4CCN(C(=O)Nc5ccc(OC(F)(F)F)cc5)CC4)ncnc3[nH]2)cc1` [P-0100, 4-[6-(4-sulfamoylphenyl)-7H-pyrrolo[2,3-d]pyrimidin-4-yl]-N-[4-(trifluoromethoxy)phenyl]piperazine-1-carboxamide] here?
Its IC50 is 0.0001 to 1 µM.

What about the IC50 (c-kit mutant D816V) of the same compound?
Its IC50 is 1 to 10 µM.

Which IC50 (c-kit kinase) does the source give for `C[C@H](NC(=O)N1CCN(c2ncnc3cc(N4CCOCC4)sc23)CC1(C)C)c1cccc(Cl)c1` [P-0558, N-[(1S)-1-(3-chlorophenyl)ethyl]-2,2-dimethyl-4-(6-morpholinothieno[3,2-d]pyrimidin-4-yl)piperazine-1-carboxamide] here?
Its IC50 is 1 to 10 µM.

What about the IC50 (c-kit mutant D816V) of the same compound?
Its IC50 is 0.0001 to 1 µM.

With `COc1cc2ncnc(-c3ccc(N)cc3F)c2cc1OC` [P-0267, 4-(6,7-dimethoxyquinazolin-4-yl)-3-fluoro-aniline] as the compound, how does the IC50 (c-kit kinase) read?
The IC50 was 10 to 200 µM.

And the IC50 (c-kit mutant D816V)?
Its IC50 is 0.0001 to 1 µM.

With `CC(=O)Nc1cccc(-c2cc3c(N4CCN(C(=O)NCc5ccc(F)cc5)CC4)ncnc3[nH]2)c1` [P-0082, 4-[6-(3-acetamidophenyl)-7H-pyrrolo[2,3-d]pyrimidin-4-yl]-N-[(4-fluorophenyl)methyl]piperazine-1-carboxamide] as the compound, how does the IC50 (c-kit kinase) read?
The IC50 was 1 to 10 µM.

What about the IC50 (c-kit mutant D816V) of the same compound?
The IC50 was 0.0001 to 1 µM.

What does the source list for `Cc1ccc(S(=O)(=O)Nc2ccc(-c3ncnc4cc(C5=CCN(C(=O)OC(C)(C)C)CC5)sc34)cc2)cc1` [P-0614, tert-butyl 4-[4-[4-(p-tolylsulfonylamino)phenyl]thieno[3,2-d]pyrimidin-6-yl]-3,6-dihydro-2H-pyridine-1-carboxylate]?
IC50 (c-kit kinase): 1 to 10 µM; IC50 (c-kit mutant D816V): 0.0001 to 1 µM

What does the source list for `COc1ccc(S(=O)(=O)Nc2ccc(-c3ncnc4[nH]c(C)cc34)c(F)c2)cc1` [P-0363, N-[3-fluoro-4-(6-methyl-7H-pyrrolo[2,3-d]pyrimidin-4-yl)phenyl]-4-methoxy-benzenesulfonamide]?
IC50 (c-kit kinase): 1 to 10 µM; IC50 (c-kit mutant D816V): 1 to 10 µM

For `O=C(Nc1ccc(OC(F)F)cc1)N1CCN(c2ncnc3[nH]c(-c4ccc(F)cc4)cc23)CC1` [P-0125, N-[4-(difluoromethoxy)phenyl]-4-[6-(4-fluorophenyl)-7H-pyrrolo[2,3-d]pyrimidin-4-yl]piperazine-1-carboxamide], which IC50 (c-kit kinase) is on record?
The IC50 was 0.0001 to 1 µM.

What about the IC50 (c-kit mutant D816V) of the same compound?
The IC50 was 1 to 10 µM.

What does the source list for `Cc1cc2c(N3CCN(C(=O)N[C@@H](C)c4ccc(F)cc4)[C@H](C)C3)ncnc2[nH]1` [P-0646, (2R)-N-[(1S)-1-(4-fluorophenyl)ethyl]-2-methyl-4-(6-methyl-7H-pyrrolo[2,3-d]pyrimidin-4-yl)piperazine-1-carboxamide]?
IC50 (c-kit kinase): 10 to 200 µM; IC50 (c-kit mutant D816V): 1 to 10 µM
